Experimental data published in article PMC11602245 (Journal of Peptide Science, 2024).
Starred links: 1 amine or outer side, 2 acyl side, 3 side chain; linkers in the order of their positions; H or OH if unused. Positions of bridges follow the written chain, without caps; N, C: chain ends. Non-standard residues stand in square brackets, D forms with d. Residues, ends and D or L forms follow the SMILES beside them. *: point of attachment. X1 = NC(=O)C[C@H](N[*:1])c1cn([C@@H](Cc2ccccc2)C(=O)[*:2])nn1; DOTA = O=C(O)CN1CCN(CC(=O)O)CCN(CC(=O)*)CCN(CC(=O)O)CC1; NMeF = CN[C@@H](Cc1ccccc1)C(=O)O

What was measured:
[1] = molecular target: T1, SST2R‐overexpressing AR42J cells (Rattus norvegicus, UniProt P30680); test: Cell binding and internalization studies; type: cell-based; settings: after 2 h, corresponds to the determined unspecific binding (blocking experiments)
T1 construct: incubating the ^111In‐labeled peptide conjugates with SST2R‐overexpressing AR42J cells in six well plates; host or cells: AR42J cells
T1 sequence (P30680 whole entry): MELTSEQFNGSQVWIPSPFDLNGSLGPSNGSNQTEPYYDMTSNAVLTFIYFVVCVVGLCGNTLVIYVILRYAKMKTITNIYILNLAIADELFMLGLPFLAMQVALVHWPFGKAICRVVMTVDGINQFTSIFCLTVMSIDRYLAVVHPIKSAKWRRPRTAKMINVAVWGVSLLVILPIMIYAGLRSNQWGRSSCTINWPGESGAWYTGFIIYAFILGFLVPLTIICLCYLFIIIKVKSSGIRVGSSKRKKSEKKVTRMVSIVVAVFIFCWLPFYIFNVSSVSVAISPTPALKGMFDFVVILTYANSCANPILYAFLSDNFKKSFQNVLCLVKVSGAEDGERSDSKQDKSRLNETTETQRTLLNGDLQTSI
Protocol: The AR42J cell line was purchased from the American Type Culture Collection (ATCC).
The cell binding and internalization assays were performed by incubating the ^111In‐labeled peptide conjugates with SST2R‐overexpressing AR42J cells in six well plates as previously described (n = 2–3 in triplicates).[13]
The binding of radiolabeled somatostatin derivatives to multiple SSTRs is of high interest because it allows to address a wide range of cancers with distinctive SSTR‐subtype expression patterns.[24] Yet, SST2R is of major medical importance because it is over‐expressed or co‐expressed by most cancer types (e.g., NETs).[25] Thus, we first focused on SST2R by conducting cell binding and internalization experiments with the SST2R‐expressing cell line AR42J. In order to determine the specificity of the binding and internalization of the radiolabeled peptides, the octapeptide TATE (DPhe^1‐cycle(Cys^2‐Phe^3‐DTrp^4‐Lys^5‐Thr^6‐Cys^7)Thr^8) was used in excess for blocking experiments. […] These values are in accordance with previously reported data.[13] […] From the total applied activity, <1% was found at the cell membrane and internalized, which corresponds to the determined unspecific binding (blocking experiments). See Figure S9 for the results of the binding and internalization studies. […]

[2] = Metabolic stability in human plasma; type: in vitro ADME
Protocol: The human plasma used in the in vitro stability assays was purchased from Sigma‐Aldrich (H4522‐20ML).
The stability assays were conducted by incubating the ^111In‐labeled peptide conjugates in human plasma at 37°C for 24 h (n = 2). The detailed description of the procedure is described elsewhere.[13]
In order to assess the proteolytic stability of the new radiolabeled peptide conjugates, in vitro stability studies were conducted in blood plasma. [^111In]In‐XG1 and [^111In]In‐XG1‐A/B/C were incubated in human plasma at 37°C, and samples were taken after 24 h for their analysis by γ‐HPLC (Figure 3). […] This hypothesis is also supported by previously reported data that identified Thr^10‐Phe^11 as one of the main cleavage sites of the native SST‐14.[15] […] To better understand the degradation of [^111In]In‐XG1‐C over time, the stability was also determined after 4 h incubation in plasma (Figure 3D), after which only 27% of the original radiopeptide remained intact. […] We hypothesize that the incorporation of the methylated amino acid (N‐Me‐Phe^11) leads to a conformation of the peptide that facilitates the accessibility of amide bonds to proteases. Similar observations have been reported for other triazolo‐peptidomimetics.[11] […] For example, one of the main enzymes involved in the degradation of the native SST‐14 is neprilysin (NEP), a membrane‐bound metalloprotease abundantly expressed in various tissues.[21], [22] The role of this enzyme in the degradation of peptides cannot be contemplated with in vitro plasma stability assays but would have to be assessed in vivo (e.g., mice).[23]

[3] = human plasma; settings: 37°C, up to 24 h
[4] = cited from earlier work

For “[DOTA,Asn^5‐Ψ[Tz]‐Phe^6,DTrp^8,β‐Phe^11]SST‐14 [[^111In]In‐XG1‐A]”, the “total applied activity found at the cell membrane and internalized” value [1] was under 1%.

`C[C@H](NC(=O)CN1CCN(CC(=O)O)CCN(CC(=O)O)CCN(CC(=O)O)CC1)C(=O)NCC(=O)N[C@H]1CSSC[C@@H](C(=O)O)NC(=O)[C@H](CO)NC(=O)[C@H]([C@@H](C)O)NC(=O)[C@H](Cc2ccccc2)NC[C@H]([C@@H](C)O)NC(=O)[C@H](CCCCN)NC(=O)[C@@H](Cc2c[nH]c3ccccc23)NC(=O)[C@H](Cc2ccccc2)NC(=O)[C@H](Cc2ccccc2)n2cc(nn2)[C@H](CC(N)=O)NC(=O)[C@H](CCCCN)NC1=O` [[^111In]In‐XG1‐B, [DOTA,Asn^5‐Ψ[Tz]‐Phe^6,DTrp^8,Thr^10‐Ψ[NH]‐Phe^11]SST‐14, metal not drawn] showed a remaining at 24 h ([2]; human, plasma) of over 97%.

`C[C@H](NC(=O)CN1CCN(CC(=O)O)CCN(CC(=O)O)CCN(CC(=O)O)CC1)C(=O)NCC(=O)N[C@H]1CSSC[C@@H](C(=O)O)NC(=O)[C@H](CO)NC(=O)[C@H]([C@@H](C)O)NC(=O)[C@H](Cc2ccccc2)N(C)C(=O)[C@H]([C@@H](C)O)NC(=O)[C@H](CCCCN)NC(=O)[C@@H](Cc2c[nH]c3ccccc23)NC(=O)[C@H](Cc2ccccc2)NC(=O)[C@H](Cc2ccccc2)n2cc(nn2)[C@H](CC(N)=O)NC(=O)[C@H](CCCCN)NC1=O` [[^111In]In‐XG1‐C, [DOTA,Asn^5‐Ψ[Tz]‐Phe^6,DTrp^8,N‐Me‐Phe^11]SST‐14, metal not drawn] ({DOTA}-AGCK[X1]F[dW]KT[NMeF]TSC-OH; disulfide 3-13) showed a remaining at 4 h ([2]; human, plasma) of 27%.

In the case of “[DOTA,Asn^5‐Ψ[Tz]‐Phe^6,DTrp^8,Thr^10‐Ψ[NH]‐Phe^11]SST‐14”, the not cleaved [3] was “more than 97% of intact peptide after 24 h”.

With “[DOTA,Asn^5‐Ψ[Tz]‐Phe^6,DTrp^8,β‐Phe^11]SST‐14” the not cleaved [3] was “more than 97% of intact peptide after 24 h”.

In the case of “Ala^1 Gly^2 Cys^3 Lys^4 Asn^5 Phe^6 Phe^7 DTrp^8 Lys^9 Thr^10 Phe^11 Thr^12 Ser^13 Cys^14”, the cleaved bond [4] is given as “Thr10-Phe11, major”.

With `C[C@H](NC(=O)CN1CCN(CC(=O)O)CCN(CC(=O)O)CCN(CC(=O)O)CC1)C(=O)NCC(=O)N[C@H]1CSSC[C@@H](C(=O)O)NC(=O)[C@H](CO)NC(=O)[C@H]([C@@H](C)O)NC(=O)[C@H](Cc2ccccc2)NC(=O)[C@H]([C@@H](C)O)NC(=O)[C@H](CCCCN)NC(=O)[C@@H](Cc2c[nH]c3ccccc23)NC(=O)[C@H](Cc2ccccc2)NC(=O)[C@H](Cc2ccccc2)n2cc(nn2)[C@H](CC(N)=O)NC(=O)[C@H](CCCCN)NC1=O` [[^111In]In‐XG1, [DOTA,Asn^5‐Ψ[Tz]‐Phe^6,DTrp^8]SST‐14, metal not drawn] ({DOTA}-AGCK[X1]F[dW]KTFTSC-OH; disulfide 3-13) the “major radiometabolite at rt = 6.4 min” value [2] was 35.3% and the remaining at 24 h ([2]; human, plasma) was 56%.
